Measured values taken from patent US9062074B2, “(9E)-15-(2-pyrrolidin-1-yl-ethoxy)-7,12,25-trioxa-19,21,24-triaza-tetracyclo[18.3.1.1(2.5).1(14,18)]hexacosa-1(24),2,4,9,14,16,18(26),20,22-nonaene citrate salt” (CTI BioPharma Corp., priority 2009, dated 2015).
Like-named read-outs stand apart in the source and are kept apart here.

Legend:
Format in all cases: physicochemical
[1] = Phase stability by XRPD after storage at 40° C. and 75% relative humidity for one week; settings: solid form by low resolution XRPD after one week
Protocol: Condition 2 (Low Resolution)
X-Ray Powder Diffraction patterns were also collected on a Bruker D8 diffractometer using Cu K[…] radiation (40 kV, 40 mA), θ-2θ goniometer, and divergence of V4 and receiving slits, a Ge monochromator and a Lynxeye detector. The instrument is performance checked using a certified Corundum standard (NIST 1976). The software used for data collection was Diffrac Plus XRD Commander v2.5.0 and the data were analysed and presented using Diffrac Plus EVA v 11.0.0.2 or v 13.0.0.2. Samples were run under ambient conditions as flat plate specimens using powder as received. Approximately 15 mg of the sample was gently packed into a cavity cut into polished, zerobackground (510) silicon wafer. The sample was rotated in its own plane during analysis. The details of the data collection are:
The samples which had been prepared for the collection of low resolution XRPD traces were placed in a chamber maintained at 40° C. and 75% relative humidity. After one week the samples were reanalysed by low resolution XRPD (Condition 2), to check for phase changes. It can be seen that no phase change has occurred, and that citrate salts of the invention are stable for at least one week under these conditions.

[2] = Thermogravimetric Analysis (TGA)
Protocol: Thermogravimetric Analysis (TGA) data were collected on a Mettler TGA/SDTA 851e equipped with a 34 position autosampler. The instrument was temperature calibrated using certified indium. Typically 5-30 mg of each sample was loaded onto a pre-weighed aluminium crucible and was heated at 10° C.min^−1 from ambient temperature to 350° C. A nitrogen purge at 50 ml.min^−1 was maintained over the sample. The instrument control and data analysis software was STARe v9.10.

[3] = Differential Scanning Calorimetry (DSC); settings: from DSC endotherm shape and TGA weight loss
Protocol: Differential Scanning Calorimetry (DSC) data were collected on a Mettler DSC 823e equipped with a 34 position auto-sampler. The instrument was calibrated for energy and temperature using certified indium. Typically 0.5-3 mg of each sample, in a pin-holed aluminium pan, was heated at 10° C.min^−1 from 25° C. to 350° C. A nitrogen purge at 50 ml.min^−1 was maintained over the sample. The instrument control and data analysis software was STARe v9.10.

[4] = Solubility assessment (solvent added in 10 volume aliquots); settings: organic solvent or mixture, thermodynamic from solid, read-out: Solubility assessment observation
Protocol: For each solvent investigated, approximately 8 mg of compound 1 was weighed into an 8 ml screw top glass vial. The solvent was added in 10 volume aliquots and the mixture sonicated and warmed (with a hot-air gun) to encourage dissolution. If dissolution was not achieved after the addition of 100 volumes of solvent, a further 100 volumes was added.

Phase Stability 1 wk @ 40° C./75% RH [1]: Crystalline Form 1 | Thermogravimetric Analysis weight change ([2]; 160 to 250° C.): −20% w/w 160 to 250 °C | Thermogravimetric Analysis weight change ([2]; ambient to 160° C.): −0.4% w/w ambient to | weight loss in TGA corresponding to DSC thermal event ([2]; at thermal event at 176° C.): ~20% | temperature above which gross degradation is occurring [3]: > 176 °C | solubility ([4]; TBME, TBME, 10 vols): < 100 mg/mL | solubility ([4]; TBME, TBME, 20 vols): < 50 mg/mL | solubility ([4]; TBME, TBME, 30 vols): < 33.3 mg/mL | solubility ([4]; TBME, TBME, 40 vols): < 25 mg/mL | solubility ([4]; TBME, TBME, 50 vols): < 20 mg/mL | solubility ([4]; TBME, TBME, 60 vols): < 16.7 mg/mL | solubility ([4]; TBME, TBME, 70 vols): < 14.3 mg/mL | solubility ([4]; TBME, TBME, 80 vols): < 12.5 mg/mL | solubility ([4]; TBME, TBME, 90 vols): < 11.1 mg/mL | solubility ([4]; TBME, TBME, 100 vols): < 10 mg/mL | solubility ([4]; TBME, TBME, 200 vols): < 5 mg/mL | solubility ([4]; ethyl acetate, Ethyl acetate, 10 vols): < 100 mg/mL | solubility ([4]; ethyl acetate, Ethyl acetate, 20 vols): < 50 mg/mL | solubility ([4]; ethyl acetate, Ethyl acetate, 30 vols): < 33.3 mg/mL | solubility ([4]; ethyl acetate, Ethyl acetate, 40 vols): < 25 mg/mL | solubility ([4]; ethyl acetate, Ethyl acetate, 50 vols): < 20 mg/mL | solubility ([4]; ethyl acetate, Ethyl acetate, 60 vols): < 16.7 mg/mL | solubility ([4]; ethyl acetate, Ethyl acetate, 70 vols): < 14.3 mg/mL | solubility ([4]; ethyl acetate, Ethyl acetate, 80 vols): < 12.5 mg/mL | solubility ([4]; ethyl acetate, Ethyl acetate, 90 vols): < 11.1 mg/mL | solubility ([4]; ethyl acetate, Ethyl acetate, 100 vols): < 10 mg/mL | solubility ([4]; ethyl acetate, Ethyl acetate, 200 vols): < 5 mg/mL | solubility ([4]; i-propyl acetate, i-propyl acetate, 10 vols): < 100 mg/mL | solubility ([4]; i-propyl acetate, i-propyl acetate, 20 vols): < 50 mg/mL | solubility ([4]; i-propyl acetate, i-propyl acetate, 40 vols): < 25 mg/mL | solubility ([4]; i-propyl acetate, i-propyl acetate, 60 vols): < 16.7 mg/mL | solubility ([4]; i-propyl acetate, i-propyl acetate, 80 vols): < 12.5 mg/mL | solubility ([4]; i-propyl acetate, i-propyl acetate, 100 vols): < 10 mg/mL | solubility ([4]; i-propyl acetate, i-propyl acetate, 200 vols): < 5 mg/mL | solubility ([4]; toluene, Toluene, 10 vols): < 100 mg/mL | solubility ([4]; toluene, Toluene, 20 vols): < 50 mg/mL | solubility ([4]; toluene, Toluene, 30 vols): < 33.3 mg/mL | solubility ([4]; toluene, Toluene, 40 vols): < 25 mg/mL | solubility ([4]; toluene, Toluene, 50 vols): < 20 mg/mL | solubility ([4]; toluene, Toluene, 60 vols): < 16.7 mg/mL | solubility ([4]; toluene, Toluene, 70 vols): < 14.3 mg/mL | solubility ([4]; toluene, Toluene, 80 vols): < 12.5 mg/mL | solubility ([4]; toluene, Toluene, 90 vols): < 11.1 mg/mL | solubility ([4]; toluene, Toluene, 100 vols): < 10 mg/mL | solubility ([4]; toluene, Toluene, 200 vols): < 5 mg/mL
Compound: C1=C2COC/C=C/COCc3cc(ccc3OCCN3CCCC3)Nc3nccc(n3)C(=C1)O2 [Batch 4]
